Reference: US8865776B2, “Use of low molecular weight amino alcohols in ophthalmic compositions” (Alcon Research, Ltd., priority 1996, dated 2014)

Test system: S. marcescens
Assay: Anti-microbial activity, log reduction of survivors after inoculation
Assay type: cell-based
Details: saline solution with 1.2% amino alcohol, 0.3% sodium chloride, 0.05% disodium edetate, pH 7.4
Method: The antibacterial activity of the above-described saline solutions against S. marcescens was evaluated. The formulations were evaluated by inoculating 20 ml of each solution with 0.1 ml of a microbial suspension. The final concentration was 10^6 colony forming units (“CPUs”) per ml. At each time point, pour plates of SCDA were prepared containing diluted aliquots of the various test samples. The bacteria and yeast plates were incubated at 30° to 35° C. for 2 to 3 days. The mold plates were incubated at 20° to 25° C. for five days. Following the colony incubation period, the number of CFUs were counted and the log reduction of the CFUs relative to the starting amount was calculated. The anti-microbial activity of the formulations against S. marcescens and P. aeruginosa was evaluated.

Compound	Log Reduction of Survivors (6 hours) [log]	Log Reduction of Survivors (24 hours) [log]
CCC(N)(CO)CO [AEPD, 2-amino-2-ethyl-1,3-propanediol]	0.0	0.7
CC(C)(N)CO [AMP, 2-amino-2-methyl-1-propanol]	0.1	0.5
CC(N)(CO)CO [AMPD, 2-amino-2-methyl-1,3-propanediol]	0.0	0.0
OCCN1CCN(CCO)CC1 [BHP, 1,4-Bis(2-hydroxyethyl)-piperazine, reference compound]	0.1	0.1
CN(C)C(C)(C)CO [DMAMP, 2-dimethylamino-methyl-1-propanol]	0.0	0.7
